Common to all, as to test: Pre-emergence field trial in citrus, residual broadleaf weed control
Common to all, as to type: in vivo

In experiment [1] the test system is black nightshade (Solanum nigrum, SOLNI). The conditions noted are these: trial SRES14 059 230 HE, Spain, diuron 900 and/or oxyfluorfen 90 g a.i./ha, rated 15 to 90 days after application. The protocol:
(§1) Field trials were conducted in citrus crops using standard herbicide small plot research methodology. Plots varied from 12 square meters (m^2) to 30 m^2 (2×15) with 3 to 4 replicates per treatment. The citrus crops were grown using normal cultural practices for the respective areas for the trials, using normal planting, fertilization, watering, flooding and maintenance for pests to ensure good growth of the crop and the weeds.
(§2) All treatments in the field trials were applied with a knapsack sprayer using compressed air as propellant. The sprayer was equipped with a boom and flat fan nozzles, and calibrated to apply homogeneously a spray volume of 200 to 400 litres/hectare at constant pressure.
(§3) Diuron in combination with oxyfluorfen, in the form of a ready for use formulation, was compared to a diuron formulation and an oxyfluorfen formulation, at dose rates of respectively […]., 900 g a.i./ha and 90 g a.i./ha.
(§4) Treatments were rated at different intervals from treatment to evaluation, from 15 to 120 days after application as compared to the untreated control plants. Assessment were done recording the percentage of ground covered by weeds and the visual efficacy on a scale of 0 to 100 percent where 0 corresponds to no weed control and 100 corresponds to complete weed control.
(§5) Trials were conducted under field conditions in Spain. Trial sites were located in commercially grown European citrus crop. The citrus trees were grown using normal cultural practices for fertilization, seeding and maintenance to ensure good growth of the crop and the weeds. The trials were conducted using normal research methodology. Plots varied from 12 square meters (m^2) to 30 m^2 (2×15) with 3 to 4 replicates per treatment. All treatment results are an average of 3 to 4 replicates. The trials had naturally occurring populations of weeds. The weed spectrum included, but was not limited to black nightshade (Solanum nigrum; SOLNI), Sow thistle (Sonchus tenerrimus, SONTE), fleabane (Conyza bonariensis, ERIBO), DIPER, hairy fleabane (Conyza bonariensis, ERIBO), redroot pigweed (Amaranthus retroflexus, AMA).
(§6) Treatments consisted applications of diuron+oxyfluorfen, diuron solo or oxyfluorfen solo. […] Colby's equation was used to determine the herbicidal effects expected from the mixtures (Colby, S. R. Calculation of the synergistic and antagonistic response of herbicide combinations. Weeds 1967, 15, 20-22.). The following equation was used to calculate the expected activity of mixtures containing two active ingredients, A and B:
(§7) A=observed efficacy of active ingredient A at the s e concentration as used in the mixture. B=observed efficacy of active ingredient B at the s e concentration as used in the mixture.
(§8) Ob=Observed visual weed control, Ex=Expected weed control as defined by Colby Equation

Experiment [2] deals with Wall-rocket (Diplotaxis erucoides, DIPER). Conditions: trial SRES14 061 230 HE, Spain, diuron 900 and/or oxyfluorfen 90 g a.i./ha, rated 15 to 90 days after application. On the procedure:
as §1, §2, §3, §4, §5, §6, §7, §8

Experiment [3] relates to Sow thistle (Sonchus tenerrimus, SONTE). Conditions: Spain, diuron 900 and/or oxyfluorfen 90 g a.i./ha, rated 15 to 90 days after application. On the procedure:
as §1, §2, §3, §4, §5, §6, §7, §8

Experiment [4] relates to fleabane (Conyza bonariensis, ERIBO). The conditions noted are these: Spain, diuron 900 and/or oxyfluorfen 90 g a.i./ha, rated 15 to 90 days after application. The protocol: as §1, §2, §3, §4, §5, §6, §7, §8
Experiment [5] concerns pigweed, redroot (Amaranthus retroflexus, AMARE). The conditions noted are these: trial SRES14 061 230 HE, Spain, diuron 900 and/or oxyfluorfen 90 g a.i./ha, rated 15 to 90 days after application. On the procedure: as §1, §2, §3, §4, §5, §6, §7, §8

Each structure is given as a SMILES string.

For `CCOc1cc(Oc2ccc(C(F)(F)F)cc2Cl)ccc1[N+](=O)[O-]` [Oxyfluorfen, 2-chloro-1-(3-ethoxy-4-nitrophenoxy)-4-(trifluoromethyl)benzene], the “% Control SOLNI Obs” value in experiment [1] was determined as 47.5%. For the same compound, the “% Control DIPER Obs” value in experiment [2] turned out to be 20%. Further, the “% Control SONTE Obs” value in experiment [3] (trial SRES14 059 230 HE) is reported as 28.8%; in experiment [3] (trial SRES14 060 230 HE) it was 10%. In addition, the “% Control ERIBO Obs” value was found to be 35% in experiment [4] (trial SRES14 059 230 HE), 47.5% in experiment [4] (trial SRES14 060 230 HE) and 43.8% in experiment [4] (trial SRES14 061 230 HE). The “% Control AMARE Obs” value in experiment [5] worked out at 45%.

As to `CN(C)C(=O)Nc1ccc(Cl)c(Cl)c1` [Diuron, N′-(3,4-dichlorophenyl)-N,N-dimethylurea], in experiment [1], the “% Control SOLNI Obs” value is 55%. The “% Control DIPER Obs” value in experiment [2] is recorded as 88.8%. Moreover, the results for the “% Control SONTE Obs” value in experiment [3] (trial SRES14 059 230 HE) and in experiment [3] (trial SRES14 060 230 HE) were 57.5% and 45%, respectively. The “% Control ERIBO Obs” value amounted to 62.5% in experiment [4] (trial SRES14 059 230 HE), 46.3% in experiment [4] (trial SRES14 060 230 HE) and 28.8% in experiment [4] (trial SRES14 061 230 HE). Further, in experiment [5], the “% Control AMARE Obs” value was determined as 53.8%.

The values above are taken from patent US20180184661A1, “Improved Herbicidal Composition, Method and Use” (Arysta LifeScience Benelux Sprl, priority 2015, published 2018).
